Source: ChEMBL document CHEMBL3045542, “A quantitative structure-activity relationship study of herbicidal analogues of alpha-hydroxy-substituted 3-benzylidenepyrrolidene-2,4-diones” (2006)

Legend:
Format in all cases: functional
Echinochloa crus-galli [1] = test: Herbicidal activity against Echinochloa crus-galli (barnyard grass) assessed as inhibition of plant growth at 10 ug/mL by cup test
Digitaria sanguinalis [2] = test: Herbicidal activity against Digitaria sanguinalis (hairy crabgrass) assessed as inhibition of plant growth at 375 g/ha applied as pre-emergence treatment; settings: Digitaria sanguinalis, pre-emergence
Digitaria sanguinalis [3] = test: Herbicidal activity against Digitaria sanguinalis (hairy crabgrass) assessed as inhibition of plant growth at 750 g/ha applied as pre-emergence treatment; settings: Digitaria sanguinalis, pre-emergence
Echinochloa crus-galli [4] = test: Herbicidal activity against Echinochloa crus-galli (barnyard grass) assessed as inhibition of plant growth at 93.75 g/ha applied as pre-emergence treatment; settings: Echinochloa crus-galli, pre-emergence
Echinochloa crus-galli [5] = test: Herbicidal activity against Echinochloa crus-galli (barnyard grass) assessed as inhibition of plant growth at 187.5 g/ha applied as pre-emergence treatment; settings: Echinochloa crus-galli, pre-emergence
Echinochloa crus-galli [6] = test: Herbicidal activity against Echinochloa crus-galli (barnyard grass) assessed as inhibition of plant growth at 750 g/ha applied as pre-emergence treatment; settings: Echinochloa crus-galli, pre-emergence
Echinochloa crus-galli [7] = test: Herbicidal activity against Echinochloa crus-galli (barnyard grass) assessed as inhibition of plant growth at 375 g/ha applied as pre-emergence treatment; settings: Echinochloa crus-galli, pre-emergence
Digitaria sanguinalis [8] = test: Herbicidal activity against Digitaria sanguinalis (hairy crabgrass) assessed as inhibition of plant growth at 187.5 g/ha applied as pre-emergence treatment; settings: Digitaria sanguinalis, pre-emergence
Digitaria sanguinalis [9] = test: Herbicidal activity against Digitaria sanguinalis (hairy crabgrass) assessed as inhibition of plant growth at 93.75 g/ha applied as pre-emergence treatment; settings: Digitaria sanguinalis, pre-emergence

CCC(C)N1CC(=O)/C(=C(/O)c2ccc(OC)cc2OC)C1=O (centres undefined)
inhibition at 10 µg/mL (Echinochloa crus-galli [1]): 79%
inhibition at 375 g/ha (Digitaria sanguinalis [2]): 63%
inhibition at 750 g/ha (Digitaria sanguinalis [3]): 80%
inhibition at 93.75 g/ha (Echinochloa crus-galli [4]): 13%
inhibition at 187.5 g/ha (Echinochloa crus-galli [5]): 14%
inhibition at 750 g/ha (Echinochloa crus-galli [6]): 100%
inhibition at 375 g/ha (Echinochloa crus-galli [7]): 76%
inhibition at 187.5 g/ha (Digitaria sanguinalis [8]): 4%
inhibition at 93.75 g/ha (Digitaria sanguinalis [9]): 0%
